Measurements from ChEMBL document CHEMBL6134898, “In Vitro ADME Profiling of PROTACs: Successes, Challenges, and Lessons Learned from Analysis of Clinical PROTACs from a Diverse Physicochemical Space” (J Med Chem, 2025).
Converted amounts (≈) assume the structure as drawn.

Legend:
[1] = Intrinsic clearance in dog hepatocytes measured per million cells at 1 uM measured for 0.5 to 120 mins by LC-MS/MS analysis; format: ADME, cell-based, Canis lupus familiaris, Hepatocyte; conditions: time 0.5-120 min, read-out: CLH
[2] = Intrinsic clearance in human hepatocytes measured per million cells at 1 uM measured for 0.5 to 120 mins by LC-MS/MS analysis; format: ADME, cell-based, Hepatocyte; conditions: time 0.5-120 min, read-out: CLH
[3] = Protein binding in rat hepatocytes assessed as free fraction at 5 uM incubated for 18 hrs by LC-MS/MS analysis; format: ADME, cell-based, Hepatocyte
[4] = Protein binding in rat plasma assessed as free fraction at 5 uM incubated for 18 hrs by LC-MS/MS analysis; format: ADME, cell-free
[5] = Protein binding in human plasma assessed as compound recovery at 5 uM incubated for 18 hrs by LC-MS/MS analysis; format: ADME, cell-free; conditions: read-out: Drug recovery
[6] = Apparent permeability across apical to basal side in human Caco-2 cells at 1 uM incubated for 120 mins by LC-MS/MS analysis; format: ADME, cell-based
[7] = Lipophilicity, LogD of compound by Chromatography; format: physicochemical
[8] = Apparent permeability across apical to basal side in human Caco-2 cells at 1 uM incubated for 120 mins followed by ACN addition by LC-MS/MS analysis; format: ADME, cell-based
[9] = Blood to plasma partitioning ratio in rat at 10 uM incubated for 30 mins by LC-MS/MS analysis; format: ADME, cell-free; conditions: whole blood
[10] = Blood to plasma partitioning ratio in human at 10 uM incubated for 30 mins by LC-MS/MS analysis; format: ADME, cell-free; conditions: whole blood
[11] = Intrinsic clearance in mouse hepatocytes measured per million cells at 1 uM measured for 0.5 to 120 mins by LC-MS/MS analysis; format: ADME, cell-based, Hepatocyte; conditions: time 0.5-120 min, read-out: CLH
[12] = Stability in human plasma at 5 uM incubated for 18 hrs by LC-MS/MS analysis; format: ADME, cell-free; conditions: read-out: Stability
[13] = Intrinsic clearance in rat hepatocytes measured per million cells at 1 uM measured for 0.5 to 120 mins by LC-MS/MS analysis; format: ADME, cell-based, Hepatocyte; conditions: time 0.5-120 min, read-out: CLH
[14] = Protein binding in dog plasma assessed as free fraction at 5 uM incubated for 18 hrs by LC-MS/MS analysis; format: ADME, cell-free, Canis lupus familiaris
[15] = Protein binding in mouse plasma assessed as free fraction at 5 uM incubated for 18 hrs by LC-MS/MS analysis; format: ADME, cell-free
[16] = Protein binding in monkey plasma assessed as free fraction at 5 uM incubated for 18 hrs by LC-MS/MS analysis; format: ADME, cell-free, Macaca mulatta; conditions: rhesus monkey
[17] = Blood to plasma partitioning ratio in dog at 10 uM incubated for 30 mins by LC-MS/MS analysis; format: ADME, cell-free, Canis lupus familiaris; conditions: whole blood
[18] = Protein binding in human plasma assessed as free fraction at 5 uM incubated for 18 hrs by LC-MS/MS analysis; format: ADME, cell-free
[19] = Intrinsic clearance in monkey hepatocytes measured per million cells at 1 uM measured for 0.5 to 120 mins by LC-MS/MS analysis; format: ADME, cell-based, Macaca mulatta, Hepatocyte; conditions: rhesus monkey, time 0.5-120 min, read-out: CLH
[20] = Solubility of compound in FaSSIF at pH 6.5 measured after 24 hrs by UPLC analysis; format: physicochemical
[21] = Solubility of compound in SGF at pH 1.2 measured after 24 hrs by UPLC analysis; format: physicochemical
[22] = Solubility of compound in FeSSIF at pH 5 measured after 24 hrs by UPLC analysis; format: physicochemical

Compound	hepatocyte CLint at 1 µM [1]	hepatocyte CLint at 1 µM [2]	fraction unbound at 18 h, 5 µM [3]	fraction unbound at 18 h, 5 µM [4]	recovery at 18 h, 5 µM [5]	Papp A→B at 2 h, 1 µM [6]	chromatographic logD [7]	Papp A→B at 2 h, 1 µM [8]	blood plasma ratio at 0.5 h, 10 µM [9]	blood plasma ratio at 0.5 h, 10 µM [10]	hepatocyte CLint at 1 µM [11]	remaining at 18 h, 5 µM [12]	hepatocyte CLint at 1 µM [13]	fraction unbound at 18 h, 5 µM [14]	fraction unbound at 18 h, 5 µM [15]	fraction unbound at 18 h, 5 µM [16]	blood plasma ratio at 0.5 h, 10 µM [17]	fraction unbound at 18 h, 5 µM [18]	hepatocyte CLint at 1 µM [19]	solubility at 24 h [20]	further results
COc1cc(-c2cn(C)c(=O)c3cnc(N4CCC4)cc23)cc(OC)c1CN1CCC(CN2CCC3(CC2)CN(c2ccc4c(c2)C(=O)N([C@H]2CCC(=O)NC2=O)C4)C3)CC1	5 µL/min/1e6 cells	< 1 µL/min/1e6 cells	0.35	0.265	65%	< 0.1 ×10⁻⁶ cm/s	1.9	0.1 ×10⁻⁶ cm/s	1.3	2.7	5 µL/min/1e6 cells	84%	< 1 µL/min/1e6 cells	0.41	0.232	0.427	2.4	0.29	3 µL/min/1e6 cells		
Cn1c(=O)n([C@H]2CCC(=O)NC2=O)c2cccc(C#CCOC3CCN(C[C@H]4CC[C@H](n5cc(NC(=O)c6cnn7ccc(N8C[C@H]9C[C@@H]8CO9)nc67)c(C(F)F)n5)CC4)CC3)c21	4 µL/min/1e6 cells	3 µL/min/1e6 cells	0.069		56%	2.4 ×10⁻⁶ cm/s	2.4	5.3 ×10⁻⁶ cm/s			11 µL/min/1e6 cells	68%	11 µL/min/1e6 cells	0.026	0.008	0.035		0.022	10 µL/min/1e6 cells	1.6 µg/mL (≈ 1.85 µM)	solubility at 24 h [21]: 4.1 µg/mL (≈ 4.73 µM); solubility at 24 h [22]: 33 µg/mL (≈ 38.1 µM)
CNC(=O)COc1cc2cc(Nc3nc(N4CCC(O[C@H]5C[C@H](N6CCC(c7ccc8c(c7F)CN(C7CCC(=O)NC7=O)C8=O)CC6)C5)CC4)ncc3Cl)ccc2n(C(C)C)c1=O (stereo partly drawn)	8 µL/min/1e6 cells	3 µL/min/1e6 cells	0.016	0.014	43%	< 0.3 ×10⁻⁶ cm/s	3.7	1.2 ×10⁻⁶ cm/s	1.1	0.8	5 µL/min/1e6 cells	7%	5 µL/min/1e6 cells	0.002	0.005	0.007	0.7	< 0.007	10 µL/min/1e6 cells		
CCc1cc(N2C(=S)N(c3ccc(C#N)c(C(F)(F)F)c3)C(=O)C2(C)C)ccc1OCCN1CCN(CC(=O)Nc2cccc(NC3CCC(=O)NC3=O)c2)[C@H](C)C1 (stereo partly drawn)	≤ 1 µL/min/1e6 cells	3 µL/min/1e6 cells	< 0.001	0.003	82%	< 0.3 ×10⁻⁶ cm/s	5.2	1.2 ×10⁻⁶ cm/s	0.7	0.6	10 µL/min/1e6 cells	72%	11 µL/min/1e6 cells	< 0.001		0.003	0.6	< 0.001	5 µL/min/1e6 cells	0.3 µg/mL (≈ 0.366 µM)	solubility at 24 h [21]: 16 µg/mL (≈ 19.5 µM); solubility at 24 h [22]: 293 µg/mL (≈ 358 µM)
Cc1ncsc1-c1ccc([C@H](C)NC(=O)[C@@H]2C[C@@H](O)CN2C(=O)[C@@H](NC(=O)CCCCCC(=O)N2CCN(CC[C@H](CSc3ccccc3)Nc3ccc(S(=O)(=O)NC(=O)c4ccc(N5CCN(CC6=C(c7ccc(Cl)cc7)CCC(C)(C)C6)CC5)cc4)cc3S(=O)(=O)C(F)(F)F)CC2)C(C)(C)C)cc1 [DT-2216]	< 1 µL/min/1e6 cells	3 µL/min/1e6 cells	< 0.001		91%		7.3		0.7	0.9	< 1 µL/min/1e6 cells	92%	3 µL/min/1e6 cells				0.8	< 0.003	≤ 1 µL/min/1e6 cells		
COc1cc(O[C@H]2C(C)(C)[C@H](NC(=O)c3ccc(N4CCC(CN5CCN(c6ccc(C(=O)N[C@H]7CCC(=O)NC7=O)c(F)c6)CC5)CC4)cc3)C2(C)C)ccc1C#N [LUXDEGALUTAMIDE]	< 1 µL/min/1e6 cells	< 1 µL/min/1e6 cells	0.01	0.003	68%	< 0.1 ×10⁻⁶ cm/s	5.3	0.3 ×10⁻⁶ cm/s	0.7	0.5	4 µL/min/1e6 cells	74%	2 µL/min/1e6 cells	0.003	0.002		0.8	< 0.004	4 µL/min/1e6 cells	0.4 µg/mL (≈ 0.495 µM)	solubility at 24 h [21]: 188 µg/mL (≈ 233 µM); solubility at 24 h [22]: 3.8 µg/mL (≈ 4.7 µM)
O=C1CC[C@H](N2Cc3cc(N4CCN(CC5CCN(c6ccc([C@@H]7c8ccc(O)cc8CC[C@@H]7c7ccccc7)cc6)CC5)CC4)ccc3C2=O)C(=O)N1 [VEPDEGESTRANT]	3 µL/min/1e6 cells	3 µL/min/1e6 cells	< 0.001	< 0.001	77%	< 0.1 ×10⁻⁶ cm/s	5.7	< 0.1 ×10⁻⁶ cm/s	0.6	0.7	23 µL/min/1e6 cells	77%	9 µL/min/1e6 cells	< 0.001	< 0.001	< 0.002	0.5	< 0.003	5 µL/min/1e6 cells	2.6 µg/mL (≈ 3.59 µM)	solubility at 24 h [21]: 230 µg/mL (≈ 318 µM); solubility at 24 h [22]: 274 µg/mL (≈ 378 µM)

Further lines, with some results ahead:

hepatocyte CLint at 1 µM [1]	hepatocyte CLint at 1 µM [2]	fraction unbound at 18 h, 5 µM [3]	fraction unbound at 18 h, 5 µM [4]	recovery at 18 h, 5 µM [5]	Papp A→B at 2 h, 1 µM [6]	chromatographic logD [7]	Papp A→B at 2 h, 1 µM [8]	blood plasma ratio at 0.5 h, 10 µM [9]	blood plasma ratio at 0.5 h, 10 µM [10]	hepatocyte CLint at 1 µM [11]	remaining at 18 h, 5 µM [12]	hepatocyte CLint at 1 µM [13]	fraction unbound at 18 h, 5 µM [14]	fraction unbound at 18 h, 5 µM [15]	fraction unbound at 18 h, 5 µM [16]	blood plasma ratio at 0.5 h, 10 µM [17]	fraction unbound at 18 h, 5 µM [18]	hepatocyte CLint at 1 µM [19]	solubility at 24 h [20]	Compound	further results
4 µL/min/1e6 cells	< 1 µL/min/1e6 cells	0.003	0.001	90%	< 0.1 ×10⁻⁶ cm/s	5.1	< 0.1 ×10⁻⁶ cm/s	0.6	0.8	8 µL/min/1e6 cells	78%	5 µL/min/1e6 cells	< 0.001	< 0.001	< 0.002	0.5	< 0.004	6 µL/min/1e6 cells		NC(=O)c1ncc(N2CCCCC2)nc1Nc1ccc(C2CCN(C[C@@H]3CCN(c4ccc5c(c4)C(=O)N(C4CCC(=O)NC4=O)C5=O)C3)CC2)cc1 (stereo partly drawn)	
< 1 µL/min/1e6 cells	2 µL/min/1e6 cells	0.008		14%	< 0.1 ×10⁻⁶ cm/s	5.1	0.1 ×10⁻⁶ cm/s	0.7	0.7	3 µL/min/1e6 cells	1%	< 1 µL/min/1e6 cells		< 0.001		0.6	< 0.001	5 µL/min/1e6 cells	1.6 µg/mL (≈ 1.97 µM)	N#Cc1ccc(O[C@H]2CC[C@H](NC(=O)c3ccc(N4CCC(CN5CCN(c6cc7c(cc6F)C(=O)N([C@H]6CCC(=O)NC6=O)C7=O)CC5)CC4)nn3)CC2)cc1Cl	solubility at 24 h [21]: 230 µg/mL (≈ 283 µM); solubility at 24 h [22]: 192 µg/mL (≈ 236 µM)
3 µL/min/1e6 cells	5 µL/min/1e6 cells	0.178	0.073	40%	2.8 ×10⁻⁶ cm/s	2.2	8.7 ×10⁻⁶ cm/s	1.1	1	4 µL/min/1e6 cells	43%	3 µL/min/1e6 cells	0.067	0.024	0.094	2.6	0.024	16 µL/min/1e6 cells	2.5 µg/mL (≈ 3.1 µM)	CN1CCN([C@@H]2CCCN(c3cnc(C(N)=O)c(Nc4ccc(C5CCN(CC6CCN(c7ccc(C(=O)N[C@H]8CCC(=O)NC8=O)nc7)CC6)CC5)cc4)n3)C2)C1=O [NX-5948]	solubility at 24 h [21]: 559 µg/mL (≈ 693 µM); solubility at 24 h [22]: 51 µg/mL (≈ 63.2 µM)
